Assay results as given in ChEMBL document CHEMBL4765492, “Discovery of GLPG2451, a Novel Once Daily Potentiator for the Treatment of Cystic Fibrosis” (J Med Chem, 2021).
Converted amounts (≈) assume the structure as drawn.

Columns and labels:
[1] = Unbound intrinsic clearance in rat liver microsomes; type: ADME, Microsome
[2] = target: T1, Cystic fibrosis transmembrane conductance regulator (Homo sapiens, UniProt P13569, F508DEL); assay: Potentiation of CFTR F508del mutant (unknown origin) expressed in human CFBE41o- cells co-expressing YFP incubated for 10 mins by halide potentiator assay; type: cell-based
T1 sequence (P13569 as listed by the source): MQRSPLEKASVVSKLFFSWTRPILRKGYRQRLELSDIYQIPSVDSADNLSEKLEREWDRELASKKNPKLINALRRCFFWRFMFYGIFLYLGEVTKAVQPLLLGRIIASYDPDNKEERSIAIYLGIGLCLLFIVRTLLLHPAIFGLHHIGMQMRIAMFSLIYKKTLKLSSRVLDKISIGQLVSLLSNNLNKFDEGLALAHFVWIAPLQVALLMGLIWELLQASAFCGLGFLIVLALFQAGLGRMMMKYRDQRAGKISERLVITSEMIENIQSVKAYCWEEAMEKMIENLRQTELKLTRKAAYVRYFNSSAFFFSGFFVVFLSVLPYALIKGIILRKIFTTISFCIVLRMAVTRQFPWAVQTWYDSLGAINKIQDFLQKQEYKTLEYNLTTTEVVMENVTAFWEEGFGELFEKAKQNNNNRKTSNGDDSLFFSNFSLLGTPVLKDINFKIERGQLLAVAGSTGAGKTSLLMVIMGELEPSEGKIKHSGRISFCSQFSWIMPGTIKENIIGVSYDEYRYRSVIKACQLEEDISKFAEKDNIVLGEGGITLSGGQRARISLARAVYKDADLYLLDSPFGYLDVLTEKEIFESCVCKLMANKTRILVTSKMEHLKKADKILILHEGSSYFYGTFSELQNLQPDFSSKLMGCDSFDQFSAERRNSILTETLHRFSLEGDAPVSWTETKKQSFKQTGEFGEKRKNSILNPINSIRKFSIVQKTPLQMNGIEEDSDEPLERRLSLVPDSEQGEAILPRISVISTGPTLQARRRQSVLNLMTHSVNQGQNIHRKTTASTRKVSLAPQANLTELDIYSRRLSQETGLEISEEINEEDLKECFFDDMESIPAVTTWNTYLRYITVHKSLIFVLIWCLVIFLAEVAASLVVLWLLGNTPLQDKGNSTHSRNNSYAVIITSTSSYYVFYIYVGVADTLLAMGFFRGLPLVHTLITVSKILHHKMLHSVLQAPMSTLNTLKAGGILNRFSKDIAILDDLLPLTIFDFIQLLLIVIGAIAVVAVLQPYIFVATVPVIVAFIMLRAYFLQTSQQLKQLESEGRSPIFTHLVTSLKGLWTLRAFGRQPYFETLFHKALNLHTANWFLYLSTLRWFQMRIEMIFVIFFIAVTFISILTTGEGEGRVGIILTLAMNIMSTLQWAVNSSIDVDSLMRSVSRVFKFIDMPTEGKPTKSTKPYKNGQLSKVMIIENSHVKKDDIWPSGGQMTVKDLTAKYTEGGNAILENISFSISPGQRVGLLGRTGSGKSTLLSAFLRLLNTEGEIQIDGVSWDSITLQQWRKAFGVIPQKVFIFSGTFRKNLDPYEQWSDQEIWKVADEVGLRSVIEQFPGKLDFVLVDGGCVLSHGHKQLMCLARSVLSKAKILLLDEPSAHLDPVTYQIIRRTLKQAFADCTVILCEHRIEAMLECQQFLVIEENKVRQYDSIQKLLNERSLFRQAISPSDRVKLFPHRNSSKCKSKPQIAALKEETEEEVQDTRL

[3] = Clearance in Sprague-Dawley rat at 1 mg/kg, iv; type: ADME, organism-based; settings: in vivo
[4] = Unbound clearance in Sprague-Dawley rat at 1 mg/kg, iv; type: ADME, organism-based; settings: in vivo
[5] = Volume of distribution at steady state in Sprague-Dawley rat at 1 mg/kg, iv; type: ADME, organism-based; settings: in vivo, read-out: Vdss
[6] = Half life in Sprague-Dawley rat at 1 mg/kg, iv; type: ADME, organism-based; settings: in vivo
[7] = Unbound intrinsic clearance in human liver microsomes; type: ADME, Microsome
[8] = Permeability of compound across apical to basolateral membrane in MDCK cells; type: ADME, cell-based, Canis lupus familiaris; settings: dog, read-out: permeability
[9] = Permeability efflux ratio in MDCK cells; type: ADME, cell-based, Canis lupus familiaris; settings: dog
[10] = Genotoxicity in Salmonella typhimurium; type: toxicity; settings: salmonella enterica subsp. enterica serovar typhimurium
[11] = Inhibition of CYP450 (unknown origin); type: ADME; settings: human
[12] = Kinetic aqueous solubility of the compound at pH 7.4; type: physicochemical; settings: buffer, read-out: Kinetic_solubility
[13] = target: T2, Nuclear receptor subfamily 1 group I member 2 (Homo sapiens, UniProt O75469); assay: Activation of PXR (unknown origin) at 10 uM by CYP450 induction assay relative to rifampicin; type: ADME
T2 sequence (O75469 whole entry): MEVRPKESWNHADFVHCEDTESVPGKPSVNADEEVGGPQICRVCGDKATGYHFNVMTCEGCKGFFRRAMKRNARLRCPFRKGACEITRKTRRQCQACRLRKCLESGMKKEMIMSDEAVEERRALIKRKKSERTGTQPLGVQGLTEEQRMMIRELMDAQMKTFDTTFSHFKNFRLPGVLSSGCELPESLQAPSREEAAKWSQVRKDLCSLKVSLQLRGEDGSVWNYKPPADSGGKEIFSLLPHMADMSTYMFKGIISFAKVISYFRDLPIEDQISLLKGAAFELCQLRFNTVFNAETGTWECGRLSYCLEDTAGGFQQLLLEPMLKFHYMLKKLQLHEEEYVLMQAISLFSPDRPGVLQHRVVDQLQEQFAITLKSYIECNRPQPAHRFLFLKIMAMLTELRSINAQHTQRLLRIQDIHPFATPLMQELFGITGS

[14] = Unbound intrinsic clearance in rat hepatocytes; type: ADME, cell-based, Hepatocyte
[15] = AUC in rat at 5 mg/kg, po; type: ADME, organism-based; set-up: dose 5 mg/kg; settings: in vivo
[16] = target: T1, Cystic fibrosis transmembrane conductance regulator; assay: Potentiation of CFTR F508del mutant in human HBE cells by trans-epithelial clamp circuit assay; type: cell-based, Primary bronchial epithelial cell
[17] = Thermodynamic solubility of the compound in the FASSIF medium; type: physicochemical; settings: read-out: Therm_solubility
[18] = Unbound intrinsic clearance in dog liver microsomes; type: ADME, Canis lupus familiaris, Microsome
[19] = Unbound intrinsic clearance in monkey liver microsomes; type: ADME, Macaca mulatta, Microsome; settings: rhesus monkey
Cytochrome P450 1A2 = target: T3, Cytochrome P450 1A2 (Homo sapiens, UniProt P05177); assay: Inhibition of CYP1A2 (unknown origin); type: ADME
T3 sequence (P05177 whole entry): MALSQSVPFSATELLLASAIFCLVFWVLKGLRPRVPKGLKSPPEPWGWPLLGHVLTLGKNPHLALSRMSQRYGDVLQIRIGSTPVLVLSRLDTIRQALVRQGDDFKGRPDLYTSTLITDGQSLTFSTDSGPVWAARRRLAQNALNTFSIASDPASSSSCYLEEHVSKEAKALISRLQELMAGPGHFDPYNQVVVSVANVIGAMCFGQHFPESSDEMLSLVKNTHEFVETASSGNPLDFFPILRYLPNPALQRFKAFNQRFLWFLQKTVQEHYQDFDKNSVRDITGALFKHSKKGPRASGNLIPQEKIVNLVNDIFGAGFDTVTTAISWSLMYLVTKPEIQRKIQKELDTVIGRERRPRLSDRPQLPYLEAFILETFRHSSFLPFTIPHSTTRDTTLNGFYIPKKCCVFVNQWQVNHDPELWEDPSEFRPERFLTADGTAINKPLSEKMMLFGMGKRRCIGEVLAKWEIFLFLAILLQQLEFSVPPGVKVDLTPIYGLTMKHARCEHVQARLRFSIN

Cytochrome P450 2C19 = Cytochrome P450 2C19 (Homo sapiens, UniProt P33261); assay: Inhibition of CYP2C19 (unknown origin); type: ADME
Cytochrome P450 2C19, sequence (P33261 whole entry): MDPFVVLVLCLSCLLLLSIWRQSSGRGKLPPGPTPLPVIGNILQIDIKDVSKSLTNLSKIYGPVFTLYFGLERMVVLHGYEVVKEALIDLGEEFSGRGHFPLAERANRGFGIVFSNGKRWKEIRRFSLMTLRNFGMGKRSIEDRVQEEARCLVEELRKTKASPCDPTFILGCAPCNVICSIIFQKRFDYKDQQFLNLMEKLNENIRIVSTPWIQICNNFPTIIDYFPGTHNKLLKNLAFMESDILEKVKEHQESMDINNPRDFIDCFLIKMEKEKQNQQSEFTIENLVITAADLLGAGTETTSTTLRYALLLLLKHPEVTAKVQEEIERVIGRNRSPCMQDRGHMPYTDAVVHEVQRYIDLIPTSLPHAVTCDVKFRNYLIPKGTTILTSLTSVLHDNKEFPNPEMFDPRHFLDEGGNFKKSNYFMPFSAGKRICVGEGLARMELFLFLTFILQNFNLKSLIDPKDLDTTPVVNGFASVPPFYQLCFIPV

Cytochrome P450 2C9 = Cytochrome P450 2C9 (Homo sapiens, UniProt P11712); assay: Inhibition of CYP2C9 (unknown origin); type: ADME
Cytochrome P450 2C9, sequence (P11712 whole entry): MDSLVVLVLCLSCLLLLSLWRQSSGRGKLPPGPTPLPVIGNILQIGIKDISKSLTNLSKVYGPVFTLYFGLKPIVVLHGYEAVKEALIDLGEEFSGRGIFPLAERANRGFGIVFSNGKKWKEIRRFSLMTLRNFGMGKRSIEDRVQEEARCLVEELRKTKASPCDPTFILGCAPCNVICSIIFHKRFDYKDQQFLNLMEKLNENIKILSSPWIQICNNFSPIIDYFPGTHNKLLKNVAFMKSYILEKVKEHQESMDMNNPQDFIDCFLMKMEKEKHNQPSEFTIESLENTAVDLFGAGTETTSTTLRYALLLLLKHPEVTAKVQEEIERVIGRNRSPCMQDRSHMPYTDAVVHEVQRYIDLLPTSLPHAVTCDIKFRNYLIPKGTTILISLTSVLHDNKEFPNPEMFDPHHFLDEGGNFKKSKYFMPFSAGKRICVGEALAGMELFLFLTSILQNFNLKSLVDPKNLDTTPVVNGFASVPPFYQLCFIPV

Cytochrome P450 2D6 = Cytochrome P450 2D6 (Homo sapiens, UniProt P10635); assay: Inhibition of CYP2D6 (unknown origin); type: ADME
Cytochrome P450 2D6, sequence (P10635 whole entry): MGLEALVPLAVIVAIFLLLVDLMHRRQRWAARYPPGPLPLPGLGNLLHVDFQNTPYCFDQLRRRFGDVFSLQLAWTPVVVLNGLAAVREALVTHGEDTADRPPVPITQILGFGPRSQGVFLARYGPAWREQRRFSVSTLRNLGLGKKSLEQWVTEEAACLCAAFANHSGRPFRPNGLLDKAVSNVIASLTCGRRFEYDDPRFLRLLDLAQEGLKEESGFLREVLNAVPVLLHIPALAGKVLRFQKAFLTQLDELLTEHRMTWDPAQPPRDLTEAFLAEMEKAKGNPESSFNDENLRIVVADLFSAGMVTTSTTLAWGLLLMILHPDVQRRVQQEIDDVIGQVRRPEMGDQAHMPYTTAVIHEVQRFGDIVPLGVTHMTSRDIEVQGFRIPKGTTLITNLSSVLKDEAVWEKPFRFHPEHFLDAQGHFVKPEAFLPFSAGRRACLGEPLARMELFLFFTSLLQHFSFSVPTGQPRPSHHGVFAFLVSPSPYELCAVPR

Cytochrome P450 3A4 = Cytochrome P450 3A4 (Homo sapiens, UniProt P08684); assay: Inhibition of CYP3A4 (unknown origin); type: ADME
Cytochrome P450 3A4, sequence (P08684 whole entry): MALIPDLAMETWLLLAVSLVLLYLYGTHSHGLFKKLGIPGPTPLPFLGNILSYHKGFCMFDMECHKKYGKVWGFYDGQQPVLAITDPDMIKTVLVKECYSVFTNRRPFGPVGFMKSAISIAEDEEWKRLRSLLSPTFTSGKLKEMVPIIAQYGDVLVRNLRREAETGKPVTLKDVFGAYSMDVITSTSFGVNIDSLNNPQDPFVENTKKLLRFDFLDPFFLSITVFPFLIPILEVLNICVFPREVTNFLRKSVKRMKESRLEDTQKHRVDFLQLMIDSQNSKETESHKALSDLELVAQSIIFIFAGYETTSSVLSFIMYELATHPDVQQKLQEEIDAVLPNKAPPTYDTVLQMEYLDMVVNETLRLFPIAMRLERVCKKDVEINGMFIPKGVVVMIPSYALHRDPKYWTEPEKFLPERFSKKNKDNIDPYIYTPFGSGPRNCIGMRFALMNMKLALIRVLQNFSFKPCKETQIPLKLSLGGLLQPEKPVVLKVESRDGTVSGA

[20] = target: Voltage-gated inwardly rectifying potassium channel KCNH2 (Homo sapiens, UniProt Q12809); assay: Inhibition of human ERG by manual patch clamp assay
Voltage-gated inwardly rectifying potassium channel KCNH2, sequence (Q12809 whole entry): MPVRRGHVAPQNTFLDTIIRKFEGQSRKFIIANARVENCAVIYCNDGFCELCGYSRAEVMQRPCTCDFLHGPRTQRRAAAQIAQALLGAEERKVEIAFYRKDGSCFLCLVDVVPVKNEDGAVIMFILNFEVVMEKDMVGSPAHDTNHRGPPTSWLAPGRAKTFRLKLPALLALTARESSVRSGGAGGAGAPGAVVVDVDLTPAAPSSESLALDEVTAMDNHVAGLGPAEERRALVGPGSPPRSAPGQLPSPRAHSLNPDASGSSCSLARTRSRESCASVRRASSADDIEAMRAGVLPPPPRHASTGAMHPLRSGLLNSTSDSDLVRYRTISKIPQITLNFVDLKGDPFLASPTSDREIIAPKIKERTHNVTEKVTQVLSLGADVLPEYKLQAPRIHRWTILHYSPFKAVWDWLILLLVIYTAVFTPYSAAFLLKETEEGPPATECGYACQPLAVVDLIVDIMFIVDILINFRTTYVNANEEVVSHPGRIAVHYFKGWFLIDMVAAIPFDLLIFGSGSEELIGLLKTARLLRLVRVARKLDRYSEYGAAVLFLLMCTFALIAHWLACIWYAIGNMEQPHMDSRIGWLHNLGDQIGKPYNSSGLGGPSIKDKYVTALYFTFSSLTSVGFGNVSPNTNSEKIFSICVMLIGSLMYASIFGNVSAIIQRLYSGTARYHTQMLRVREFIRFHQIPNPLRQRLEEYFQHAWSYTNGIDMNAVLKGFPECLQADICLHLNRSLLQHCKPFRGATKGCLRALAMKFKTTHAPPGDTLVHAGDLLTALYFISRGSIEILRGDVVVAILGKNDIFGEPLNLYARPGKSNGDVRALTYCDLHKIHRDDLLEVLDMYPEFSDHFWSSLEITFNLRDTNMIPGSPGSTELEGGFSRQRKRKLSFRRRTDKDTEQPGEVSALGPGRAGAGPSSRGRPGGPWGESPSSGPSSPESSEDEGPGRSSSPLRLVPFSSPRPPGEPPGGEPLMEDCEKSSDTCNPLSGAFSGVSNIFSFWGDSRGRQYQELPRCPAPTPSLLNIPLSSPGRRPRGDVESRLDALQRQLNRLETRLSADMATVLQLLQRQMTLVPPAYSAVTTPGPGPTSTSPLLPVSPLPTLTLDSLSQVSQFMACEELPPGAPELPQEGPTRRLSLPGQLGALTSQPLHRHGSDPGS

[21] = Clearance in Beagle dog at 1 mg/kg, iv; type: ADME, organism-based, Canis lupus familiaris; settings: in vivo
[22] = Clearance in Cynomolgus monkey at 1 mg/kg, iv; type: ADME, organism-based, Macaca fascicularis; settings: in vivo
[23] = Unbound clearance in Beagle dog at 1 mg/kg, iv; type: ADME, organism-based, Canis lupus familiaris; settings: in vivo
[24] = Unbound clearance in Cynomolgus monkey at 1 mg/kg, iv; type: ADME, organism-based, Macaca fascicularis; settings: in vivo
[25] = Volume of distribution at steady state in Beagle dog at 1 mg/kg, iv; type: ADME, organism-based, Canis lupus familiaris; settings: in vivo, read-out: Vdss
[26] = Volume of distribution at steady state in Cynomolgus monkey at 1 mg/kg, iv; type: ADME, organism-based, Macaca fascicularis; settings: in vivo, read-out: Vdss
[27] = Half life in Beagle dog at 1 mg/kg, iv; type: ADME, organism-based, Canis lupus familiaris; settings: in vivo
[28] = Half life in Cynomolgus monkey at 1 mg/kg, iv; type: ADME, organism-based, Macaca fascicularis; settings: in vivo
[29] = Oral bioavailability in Beagle dog at 1 mg/kg; type: ADME, organism-based, Canis lupus familiaris; settings: in vivo
[30] = Oral bioavailability Cynomolgus monkey at 1 mg/kg, […]; type: ADME, organism-based, Macaca fascicularis; settings: in vivo
[31] = Toxicity in human assessed as drug tolerability during phase I study
[32] = test system: Cystic fibrosis transmembrane conductance regulator (Homo sapiens), P13569 [G551D]; assay: Potentiation of CFTR G551D mutant (unknown origin) expressed in human HEK293 cells co-expressing YFP incubated for 10 mins by halide potentiator assay relative to control; type: cell-based; settings: filed as activator

Nc1cc(S(=O)(=O)c2ccc(F)cc2)cnc1C(=O)NC[C@@H](O)C(F)(F)F
CL free [1]: 26.7 mL/min/kg | EC50 [2]: 7.8 nM | clearance [3]: 2.17 mL/min/kg | CL free [4]: 26.8 mL/min/kg | Vd [5]: 2.9 L/kg | half-life [6]: > 15 h | CL free [7]: 17 mL/min/kg

Nc1cc(S(=O)(=O)c2ccc(C(F)(F)F)cc2)cnc1C(=O)N1CCC[C@H]1CO
EC50 [2]: > 2000 nM

NC(=O)c1cc(S(=O)(=O)N2CCCCC2)sc1NC(=O)c1ccn[nH]1
CL free [1]: 250 mL/min/kg | EC50 [2]: 13 nM | Papp A→B [8]: 0.5 ×10⁻⁶ cm/s | efflux ratio [9]: 40

NC(=O)c1cc(S(=O)(=O)c2ccc(F)cc2)sc1NC(=O)c1ccn[nH]1
CL free [1]: 71.7 mL/min/kg | EC50 [2]: 29 nM | Papp A→B [8]: 0.9 ×10⁻⁶ cm/s | efflux ratio [9]: 37

CC(C)(O)CNC(=O)c1ncc(S(=O)(=O)c2ccc(OC(F)(F)F)cc2)cc1N
CL free [1]: 93.3 mL/min/kg | EC50 [2]: 33 nM | Activity [10]: Non-Toxic | inhibition (INH) [11]: Not Active | solubility kinetic [12]: 37 µM (≈ 16 µg/mL) | Activity [13]: 41%

NC(=O)c1cc(S(=O)(=O)c2ccc(F)cc2)sc1NC(=O)C1(O)CC1
CL free [1]: 76.7 mL/min/kg | EC50 [2]: 79 nM | Papp A→B [8]: 1 ×10⁻⁶ cm/s | efflux ratio [9]: 137 | CL free [14]: 107 mL/min/kg | AUC [15]: 500 ng·h/mL

C[C@H](O)CNC(=O)c1ncc(S(=O)(=O)c2ccc(OC(F)(F)F)cc2)cc1N
CL free [1]: 41.7 mL/min/kg | EC50 [2]: 11 nM | clearance [3]: 1.33 mL/min/kg | CL free [4]: 45 mL/min/kg | Vd [5]: 1.1 L/kg | half-life [6]: 8.9 h | CL free [7]: 20 mL/min/kg | solubility kinetic [12]: 37 µM (≈ 15.5 µg/mL) | Activity [13]: 12% | EC50 [16]: 18 nM | solubility thermodynamic [17]: 83 µM (≈ 34.8 µg/mL) | CL free [18]: 28.3 mL/min/kg | CL free [19]: 18.3 mL/min/kg | EC50 (Cytochrome P450 1A2): > 100000 nM | EC50 (Cytochrome P450 2C19): > 33000 nM | EC50 (Cytochrome P450 2C9): 26000 nM | EC50 (Cytochrome P450 2D6): > 100000 nM | EC50 (Cytochrome P450 3A4): > 100000 nM | EC50 [20]: > 30000 nM | clearance [21]: 2.33 mL/min/kg | clearance [22]: 0.667 mL/min/kg | CL free [23]: 33 mL/min/kg | CL free [24]: 21.7 mL/min/kg | Vd [25]: 2.7 L/kg | Vd [26]: 0.8 L/kg | half-life [27]: 15 h | half-life [28]: 16 h | bioavailability [29]: 93% | F [30]: 100% | Activity [31]: Non-Toxic

CC(C)(C)c1cc(C(C)(C)C)c(NC(=O)c2c[nH]c3ccccc3c2=O)cc1O
Activity [32]: 53%

CN(C[C@@H](O)C(F)(F)F)C(=O)c1ncc(S(=O)(=O)c2ccc(F)cc2)cc1N
EC50 [2]: > 2000 nM
